The values that follow come from ChEMBL document CHEMBL6153124, “Structural Chemistry of Helicase Inhibition” (J Med Chem, 2025).

Test [1] is described as follows: Inhibition of Coxsackievirus B3 2C protein.
For test [2], the target named is SWI/SNF-related matrix-associated actin-dependent regulator of chromatin subfamily A member 2 (Homo sapiens, UniProt P51531). Description: Inhibition of SMARCA2 (unknown origin).
The nature of test [3]: Inhibition of HSV-1 helicase DNA dependent ATPase activity assessed as reduction in helicase-primase complex. More on the design: species or system Human alphaherpesvirus 1.
Test [4] deals with T1, Bifunctional 3'-5' exonuclease/ATP-dependent helicase WRN (Homo sapiens, UniProt Q14191). Description: Inhibition of N-terminal WRN (unknown origin).
T1 sequence (Q14191 whole entry, the tested form may be a part): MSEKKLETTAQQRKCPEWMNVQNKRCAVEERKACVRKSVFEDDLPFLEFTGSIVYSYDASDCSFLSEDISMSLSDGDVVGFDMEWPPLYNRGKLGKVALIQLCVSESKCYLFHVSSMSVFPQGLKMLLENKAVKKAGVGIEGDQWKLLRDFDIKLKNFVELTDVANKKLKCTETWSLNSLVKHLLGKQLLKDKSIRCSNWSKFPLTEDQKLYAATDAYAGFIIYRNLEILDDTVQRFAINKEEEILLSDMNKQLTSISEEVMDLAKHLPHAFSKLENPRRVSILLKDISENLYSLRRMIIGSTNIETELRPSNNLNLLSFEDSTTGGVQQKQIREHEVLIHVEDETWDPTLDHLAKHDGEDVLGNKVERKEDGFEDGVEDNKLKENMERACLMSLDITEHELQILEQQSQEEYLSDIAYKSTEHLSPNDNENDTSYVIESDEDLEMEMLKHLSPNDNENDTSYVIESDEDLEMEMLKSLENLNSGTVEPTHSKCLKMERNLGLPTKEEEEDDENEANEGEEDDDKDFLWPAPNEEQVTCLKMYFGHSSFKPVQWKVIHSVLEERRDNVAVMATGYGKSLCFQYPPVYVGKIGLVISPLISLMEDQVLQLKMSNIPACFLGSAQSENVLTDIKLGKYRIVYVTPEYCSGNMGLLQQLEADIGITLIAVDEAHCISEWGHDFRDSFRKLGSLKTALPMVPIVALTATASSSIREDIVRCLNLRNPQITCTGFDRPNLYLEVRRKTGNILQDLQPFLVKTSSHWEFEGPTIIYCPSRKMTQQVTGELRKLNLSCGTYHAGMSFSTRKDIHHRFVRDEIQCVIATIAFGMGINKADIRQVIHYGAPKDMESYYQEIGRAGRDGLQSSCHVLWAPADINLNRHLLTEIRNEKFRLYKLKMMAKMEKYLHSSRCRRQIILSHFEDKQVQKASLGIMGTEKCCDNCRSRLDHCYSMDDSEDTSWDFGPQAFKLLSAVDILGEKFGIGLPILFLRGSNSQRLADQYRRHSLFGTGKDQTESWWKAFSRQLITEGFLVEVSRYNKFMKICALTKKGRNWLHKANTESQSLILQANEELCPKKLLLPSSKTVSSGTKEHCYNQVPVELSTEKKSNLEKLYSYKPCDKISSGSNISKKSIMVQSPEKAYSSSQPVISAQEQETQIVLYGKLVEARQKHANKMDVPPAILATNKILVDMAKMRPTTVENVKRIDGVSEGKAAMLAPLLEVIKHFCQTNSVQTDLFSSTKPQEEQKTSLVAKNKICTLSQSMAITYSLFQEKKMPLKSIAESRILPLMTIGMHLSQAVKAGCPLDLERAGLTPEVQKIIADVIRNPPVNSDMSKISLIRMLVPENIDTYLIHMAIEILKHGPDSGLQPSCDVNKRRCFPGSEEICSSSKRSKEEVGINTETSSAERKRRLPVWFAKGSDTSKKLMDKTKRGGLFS
Test [5] deals with T1, Bifunctional 3'-5' exonuclease/ATP-dependent helicase WRN. The test can be described thus: Inhibition of N-terminal Hexa-histidine-tagged human recombinant WRN helicase domain (517 to 945 residues) extracted from Baculovirus infected Sf9 cells by fluorescence based analysis.
Test [6] addresses Eukaryotic initiation factor 4A-I (Homo sapiens, UniProt P60842). Description: Inhibition of recombinant full length 6xHis-tagged EIF4A1 (unknown origin) by FP assay.
The nature of test [7]: Binding affinity to Coxsackievirus B3 2C protein assessed as dissociation constant.

The structures appear in SMILES notation.

Sequence of Eukaryotic initiation factor 4A-I (P60842 whole entry): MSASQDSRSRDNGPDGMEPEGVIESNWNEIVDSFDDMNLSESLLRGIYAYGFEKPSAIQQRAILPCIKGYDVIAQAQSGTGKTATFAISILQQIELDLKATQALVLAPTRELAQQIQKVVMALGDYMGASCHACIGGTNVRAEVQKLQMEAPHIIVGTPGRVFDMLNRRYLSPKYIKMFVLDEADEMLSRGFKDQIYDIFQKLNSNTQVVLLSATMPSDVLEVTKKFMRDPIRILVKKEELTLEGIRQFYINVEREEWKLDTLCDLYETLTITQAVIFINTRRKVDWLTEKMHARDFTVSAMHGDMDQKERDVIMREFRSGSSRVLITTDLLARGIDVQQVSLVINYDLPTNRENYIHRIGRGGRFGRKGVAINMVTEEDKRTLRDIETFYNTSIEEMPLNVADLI
Sequence of SWI/SNF-related matrix-associated actin-dependent regulator of chromatin subfamily A member 2 (P51531 whole entry): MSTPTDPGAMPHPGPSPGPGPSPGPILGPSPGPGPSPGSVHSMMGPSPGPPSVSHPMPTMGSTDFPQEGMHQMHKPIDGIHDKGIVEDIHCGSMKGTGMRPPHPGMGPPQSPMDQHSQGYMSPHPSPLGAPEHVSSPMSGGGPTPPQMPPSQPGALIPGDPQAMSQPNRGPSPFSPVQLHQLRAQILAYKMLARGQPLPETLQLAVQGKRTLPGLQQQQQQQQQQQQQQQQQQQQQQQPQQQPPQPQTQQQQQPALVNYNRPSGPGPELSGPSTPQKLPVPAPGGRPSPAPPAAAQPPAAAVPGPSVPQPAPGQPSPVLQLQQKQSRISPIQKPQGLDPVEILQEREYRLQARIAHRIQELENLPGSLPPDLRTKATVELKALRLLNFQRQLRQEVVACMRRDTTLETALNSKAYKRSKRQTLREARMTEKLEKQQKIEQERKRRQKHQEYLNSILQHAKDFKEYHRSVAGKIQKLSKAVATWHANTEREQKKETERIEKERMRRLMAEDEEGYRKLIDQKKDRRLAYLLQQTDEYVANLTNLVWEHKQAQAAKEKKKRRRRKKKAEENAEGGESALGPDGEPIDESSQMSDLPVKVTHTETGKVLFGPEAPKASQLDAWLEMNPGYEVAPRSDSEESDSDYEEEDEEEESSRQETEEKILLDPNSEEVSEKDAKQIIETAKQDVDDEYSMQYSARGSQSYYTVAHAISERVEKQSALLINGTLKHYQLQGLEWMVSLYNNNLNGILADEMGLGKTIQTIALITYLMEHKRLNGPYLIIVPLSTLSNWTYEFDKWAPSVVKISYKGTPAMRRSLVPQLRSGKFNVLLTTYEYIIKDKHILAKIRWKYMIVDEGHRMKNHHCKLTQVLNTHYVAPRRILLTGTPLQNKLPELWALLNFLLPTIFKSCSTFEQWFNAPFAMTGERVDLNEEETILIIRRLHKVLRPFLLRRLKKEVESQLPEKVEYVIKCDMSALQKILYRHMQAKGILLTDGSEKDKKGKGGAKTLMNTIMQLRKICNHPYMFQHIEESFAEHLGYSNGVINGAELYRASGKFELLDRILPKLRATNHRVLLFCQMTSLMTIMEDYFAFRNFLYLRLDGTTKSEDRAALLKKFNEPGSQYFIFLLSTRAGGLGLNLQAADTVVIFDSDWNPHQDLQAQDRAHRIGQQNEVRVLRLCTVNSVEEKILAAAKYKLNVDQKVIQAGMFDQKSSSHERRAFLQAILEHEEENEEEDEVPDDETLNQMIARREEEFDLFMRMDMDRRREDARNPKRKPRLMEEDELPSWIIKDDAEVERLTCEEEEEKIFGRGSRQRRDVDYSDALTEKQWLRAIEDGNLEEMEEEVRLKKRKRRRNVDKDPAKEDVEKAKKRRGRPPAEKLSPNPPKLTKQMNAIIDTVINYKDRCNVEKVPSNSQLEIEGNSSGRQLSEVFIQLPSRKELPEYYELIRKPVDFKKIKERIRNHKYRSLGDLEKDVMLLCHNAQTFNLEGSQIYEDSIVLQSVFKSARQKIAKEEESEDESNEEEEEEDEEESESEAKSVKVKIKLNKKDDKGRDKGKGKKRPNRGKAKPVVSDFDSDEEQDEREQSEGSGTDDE

`CNCC[C@H](Oc1ccc(C(F)(F)F)cc1)c1ccccc1` had an EC50 in test [1] of 5000 nM.
Turning to `O=C(Nc1cc(C(F)F)ns1)Nc1cc(F)ncc1CO`, in test [2], the IC50 was < 5 nM.
On to `Cc1cccc(C)c1N(CC(=O)Nc1ccc(-c2ncon2)cc1)C(=O)C1CCS(=O)(=O)CC1`, for which the IC50 in test [3] came out at 78 nM.
In the case of `CS(=O)(=O)CC[C@@H](NC(=O)c1cnc(C(F)(F)F)nc1Oc1ccccc1)C1CC1`, the IC50 in test [4] and in test [5] was 140 nM in each case.
Consider `CC(/C=C/C(C)=C/[C@@H]1Cc2nc(cs2)CC[C@@H](N)CC(=O)O[C@@H](C)C/C(C)=C/C=C\C(=O)O1)=C\CN(C)C`, for which the IC50 in test [6] stood at 1 nM.
For the molecule `CNCCC(Oc1ccc(C(F)(F)F)cc1)c1ccccc1` (centres undefined) [FLUOXETINE], the EC50 in test [1] is ~5000 nM. For the same molecule, the Kd in test [7] amounted to 9500 nM.
For the molecule `COC(=O)[C@H]1[C@@H](O)[C@@]2(O)c3c(OC)cc(O[C@@H]4O[C@@H]([C@H](O)CO)CO[C@H]4OC)cc3O[C@@]2(c2ccc(OC)cc2)[C@@H]1c1ccccc1` [SILVESTROL], in test [6], the IC50 was found to be 60 nM.

Broadly, the EC50 is the concentration giving half of the maximal effect. A word on the IC50: it is the midpoint of a concentration-inhibition curve. For orientation: Kd means a measure of binding affinity in units of concentration.
